Test results: patent publication US3946003A, “Hydroxy substituted phenylglycylamido-3-heterocyclic thiomethyl cephalosporins” (Eli Lilly and Company, priority 1974, dated 1976)
Values after ≈ are worked out from the molar mass of the structure shown.

Experiments:
[1] = system: Aerobacter aerogenes; experiment: Antibacterial activity, MIC by Gradient-plate technique; format: cell-based; details: for MIC: Klebsiella aerogenes, read-out: Minimum Inhibitory Concentration
Description: (§1) The cephalosporin compounds of this invention (Formula I, R1 =H) are orally effective broad spectrum antibiotics which are useful in controlling infections caused by gram-positive and gram-negative bacteria. […] In Table I, below, the antibacterial activity of the compounds of formula I wherein R1 is hydrogen is illustrated. The bacteria are gram-negative bacteria and the activity is presented as minimum inhibitory concentrations in micrograms per milliliter (mcg./ml.). The activity was obtained by the Gradient-plate technique.

[2] = system: Escherichia coli; experiment: as above; format: cell-based; details: for MIC: read-out: Minimum Inhibitory Concentration
Description: as §1

[3] = system: Klebsiella pneumoniae; experiment: as above; format: cell-based; details: for MIC: read-out: Minimum Inhibitory Concentration
Description: as §1

[4] = system: Pseudomonas aeruginosa; experiment: as above; format: cell-based; details: for MIC: read-out: Minimum Inhibitory Concentration
Description: as §1

[5] = system: Salmonella heidelberg; experiment: as above; format: cell-based; details: for MIC: Salmonella enterica, read-out: Minimum Inhibitory Concentration
Description: as §1

[6] = system: Serratia marcescens; experiment: as above; format: cell-based; details: for MIC: read-out: Minimum Inhibitory Concentration
Description: as §1

[7] = system: Shigella sp.; experiment: as above; format: cell-based; details: for MIC: read-out: Minimum Inhibitory Concentration
Description: as §1

[8] = system: Diplococcus pneumoniae Park I; experiment: Oral therapy of experimental infections in mice; format: in vivo; details: Streptococcus pneumoniae, oral (gavage) at 1 and 5 hours post infection, read-out: Effective Dose (ED50)
Protocol: (§2) In Table II, the respective effective doses (ED50) for these antibiotics is presented. The data were obtained in mice infected with the indicated microorganism following oral administration of the antibiotics at 1 and 5 hours post infection.
(§3) ^1 mg./kg. × 2 oral doses (gavage) at 1 and 5 hours post

[9] = system: Escherichia coli EC14; experiment: Oral therapy of experimental infections in mice; format: in vivo; details: oral (gavage) at 1 and 5 hours post infection, read-out: Effective Dose (ED50)
Protocol: as §2, §3

[10] = system: Proteus mirabilis PR6; experiment: Oral therapy of experimental infections in mice; format: in vivo; details: oral (gavage) at 1 and 5 hours post infection, read-out: Effective Dose (ED50)
Protocol: as §2, §3

[11] = system: Streptococcus pyogenes C203; experiment: Oral therapy of experimental infections in mice; format: in vivo; details: for ED50: Streptococcus pyogenes C203, mice, oral (gavage) at 1 and 5 hours post infection, read-out: Effective Dose (ED50)
Protocol: as §2, §3

[12] = Duration of antibiotic blood levels in mice after single oral dose (agar disc-plate assay, Sarcina lutea); format: in vivo; details: mouse, single oral dose 20 mg./kg.; for concentration at 10 min: 10 min post administration; for concentration at 20 min: 20 min post administration; for concentration at 0.5 h: 30 min post administration; for concentration at 1 h: 60 min post administration; for concentration at 1.5 h: 90 min post administration; for concentration at 2 h: 120 min post administration; for Cmax: read-out: peak blood level
Protocol: The determinations were carried out in groups of 3 or 4 mice as indicated in the table and the results averaged. At the indicated time intervals post administration, blood samples were withdrawn at the orbital sinus from each mouse in the test group and assayed for the concentration of antibiotic. […]

[13] = physchem; details: 6% dmf

Compound | MIC [1] [µg/mL] | MIC [2] [µg/mL] | MIC [3] [µg/mL] | MIC [4] [µg/mL] | MIC [5] [µg/mL] | MIC [6] [µg/mL] | MIC [7] [µg/mL] | ED50 [8] [mg/kg] | ED50 [9] [mg/kg] | ED50 [10] [mg/kg] | ED50 [11] [mg/kg] | concentration at 10 min [12] [ng/mL] | concentration at 20 min [12] [ng/mL] | concentration at 0.5 h [12] [ng/mL] | concentration at 1 h [12] [ng/mL] | concentration at 1.5 h [12] [ng/mL] | concentration at 2 h [12] [ng/mL] | Cmax [12] [ng/mL] | also measured
7β-(D-4-hydroxyphenylglycylamido)-3-(1-methyl-1H-tetrazole-5-ylthiomethyl)-3-cephem-4-carboxylic acid |  |  |  |  |  |  |  |  |  |  |  |  |  |  |  |  |  |  | Minimum Inhibitory Concentration [1]: 0.9 µg/mL; Minimum Inhibitory Concentration [2]: 0.9 µg/mL; Minimum Inhibitory Concentration [3]: 0.6 µg/mL; Minimum Inhibitory Concentration [4]: 120 µg/mL; Minimum Inhibitory Concentration [5]: 0.8 µg/mL; Minimum Inhibitory Concentration [6]: 5.0 µg/mL; Minimum Inhibitory Concentration [7]: 0.8 µg/mL
Cn1nnnc1SCC1=C(C(=O)O)N2C(=O)[C@@H](NC(=O)[C@H](N)c3ccc(O)cc3)[C@H]2SC1 [compound 1, 7β-(4-hydroxyphenylglycylamido)-3-(1-methyl-1H-tetrazole-5-ylthiomethyl)-3-cephem-4-carboxylic acid] | 0.7 (≈ 1.47 µM) | 1 (≈ 2.09 µM) | 1 (≈ 2.09 µM) | > 200 | 0.6 (≈ 1.26 µM) | 12.5 (≈ 26.2 µM) | 0.8 (≈ 1.68 µM) | < 1.1 | 3.7 | < 4.5 | 0.18 | 2560 | 5780 | 8550 | 8880 | 6940 | 5360 | ~8900 | 
Cn1nnnc1SCC1=C(C(=O)O)N2C(=O)C(NC(=O)C(N)c3ccccc3)C2SC1 (stereo not drawn) [compound 2, reference compound] |  |  |  |  |  |  |  |  | 8.4 |  | 4.05 | 260 | 750 | 1170 | 890 | 1090 |  | ~1200 | 
Cc1nnc(SCC2=C(C(=O)O)N3C(=O)[C@@H](NC(=O)[C@H](N)c4ccc(O)cc4)[C@H]3SC2)s1 [compound 3, 7β-(D-4-hydroxyphenylglycylamido)-3-(5-methyl-1,3,4-thiadiazol-2-ylthiomethyl)-3-cephem-4-carboxylic acid] | 1 (≈ 2.03 µM) | 2.5 (≈ 5.06 µM) | 1 (≈ 2.03 µM) | > 200 | 1 (≈ 2.03 µM) | 47.5 (≈ 96.2 µM) | 2 (≈ 4.05 µM) | < 1.1 | 2.1 | < 4.5 | 0.08 | 10600 | 13200 | 13900 | 14300 | 9800 | 5200 | ~14300 | ED50 times lower than that exhibited by compound No. 4 ([11]; S. pyogenes infections in mice, 1.15/0.08): approximately 14 times; ED50 times lower than that exhibited by compound No. 2 ([11]; S. pyogenes infections in mice, 4.05/0.08): approximately 50 times; pKa ([13]; pKa (first)): 4.4; pKa ([13]; pKa (second)): 7.6; pKa ([13]; pKa (third)): 12.2
Cc1nnc(SCC2=C(C(=O)O)N3C(=O)C(NC(=O)C(N)c4ccccc4)C3SC2)s1 (stereo not drawn) [compound 4, reference compound] |  |  |  |  |  |  |  | 5.2 | 6.9 | 20.7 | 1.15 | 1980 | 3380 | 3990 | 2340 | 1610 |  | ~4000 | 
